Common to all, as to assay type: in vivo
The test system of test [1] is Aphis gossypii. Briefly: Test Example 2: root immersion of cucumber seedling, then inoculation with Aphis gossypii. The note with it: 168 h; 500 ppm active ingredient; cucumber root part immersed in 5 ml; 30 Aphis gossypii inoculated one day after treatment; examined after further seven days. How it is done:
A root part of a cucumber seedling (the first true leaf stage) from which soil had been washed off was immersed in 5 ml of each of the diluted solutions, and one day after treatment, on the cucumber leaf surface was inoculated with 30 Aphis gossypii (whole stage). After further seven days, the number of insect of living Aphis gossypii parasitized on the leaves of the cucumber was examined, and a control value was calculated according to the following equation: Control value (%)={1−(Cb×Tai)/(Cai×Tb))×100 wherein symbols represent as follows: Cb: the number of insects in a non-treated section before treatment, Cai: the number of insects in a non-treated section in observation, Tb: the number of insects in a treated-section before treatment, Tai: the number of insects in a treated-section in observation; wherein the non-treated section represents a section where the test diluted solution prepared by diluting the formulation without the present compound in Formulation Example 5 with the same amount of water as in the treated-section was used.

Test [2] has as its system Bemisia tabaci. Briefly: Test Example 6: spray on tomato seedling with Bemisia tabaci instar larvae. The following applies: 168 h; 500 ppm active ingredient; 20 ml/cup sprayed on tomato seedling with hatched Bemisia tabaci instar larvae; after 7 days at 25° C. Here is the method: On the other hand, Bemisia tabaci adult was released on a tomato seedling (the third true leaf stage) planted in a polyethylene cup, and made to lay eggs for about 72 hours. The tomato seedling was kept in a greenhouse for 8 days. When instar larvae hatched from the eggs, the above test spray solution was sprayed in the amount of 20 ml/cup. The cup was kept in a greenhouse at 25° C. After the keeping for 7 days, the number of surviving instar larvae on the tomato leaves was examined, and a control value was calculated according to the following equation: Control value (%)={1−(Cb×Tai)/(Cai×Tb))×100 wherein symbols represent as follows: Cb: the number of insects in a non-treated section before treatment, Cai: the number of insects in a non-treated section in observation, Tb: the number of insects in a treated-section before treatment, Tai: the number of insects in a treated-section in observation; wherein the non-treated section represents a section where the test spray solution prepared by diluting the formulation without the present compound in Formulation Example 5 with the same amount of water as in the treated-section was sprayed.

Test [3] concerns Aphis gossypii. Briefly: Test Example 1: spray on cucumber seedling inoculated with Aphis gossypii. The note with it: topical, 144 h; 500 ppm active ingredient (Formulation Example 5 diluted with water); 20 ml sprayed on cucumber seedling with about 30 Aphis gossypii; six days after spraying. How it is done:
On the other hand, on a cucumber seedling (the first true leaf stage) planted in a plastic cup was inoculated with about 30 Aphis gossypii, and leaving it for a day. Twenty ml of each of the above test spray solutions was sprayed on this seedling. Six days after spraying, the number of the surviving Aphis gossypii parasitized on the leaves of the cucumber was examined, and a control value was calculated according to the following equation: Control value (%)={1−(Cb×Tai)/(Cai×Tb))×100 wherein symbols represent as follows: Cb: the number of insects in a non-treated section before treatment, Cai: the number of insects in a non-treated section in observation, Tb: the number of insects in a treated-section before treatment, Tai: the number of insects in a treated-section in observation; wherein the non-treated section represents a section where the test spray solution prepared by diluting the formulation without the present compound in Formulation Example 5 with the same amount of water as in the treated-section was sprayed.

The subject of test [4] is Nilaparvata lugens. Briefly: Test Example 4: spray on rice seedling, release of Nilaparvata lugens larvae. The note with it: 144 h; 500 ppm active ingredient; rice seedling sprayed with 10 ml; third-fourth instar larvae of Nilaparvata lugens; after 6 days at 25° C.; read-out: Control value.
The test system of test [5] is Adoxophyes orana fasciata. Briefly: Test Example 8: spray on apple tree, release of Adoxophyes orana fasciata. The note with it: in Malus domestica, 168 h; 500 ppm active ingredient; apple tree sprayed with 20 mL/cup; 60 first-instar Adoxophyes orana fasciata; after 7 days; read-out: Death rate. How it is done:
On the other hand, an apple tree was planted in a plastic cup, and grown until the seventh-eighth leaf was spread. The apple tree was sprayed with 20 mL/cup of each of the test spray solution. After the test solution was dried, 60 first-instar Adoxophyes orana fasciata were released, and the cup was covered with a plastic cup upside-down which the bottom was cut off and a filter paper was put thereon. After 7 days, the number of living insects was counted, and a death rate was calculated according to the following equation: Death rate (%)=(Number of dead insects/Number of tested insects)×100

In test [6] the test system is Aphis gossypii. Briefly: Test Example 3: drench at foot of cucumber seedling, then inoculation with Aphis gossypii. The following applies: soil, 144 h; 500 ppm active ingredient; cucumber seedling drenched at its foot with 5 ml, kept 7 days at 25° C.; 30 Aphis gossypii inoculated; examined after 6 days; read-out: Control value.
Test [7] deals with Nilaparvata lugens. Briefly: Test Example 5: drench at foot of rice seedling, release of Nilaparvata lugens larvae. The following applies: soil, 144 h; 500 ppm active ingredient; rice seedling drenched at its foot with 5 ml, kept 7 days; twenty third-fourth instar larvae of Nilaparvata lugens; examined after 6 days. Here is the method:
On the other hand, a rice seedling (2 weeks after sowing, the second leaf stage) planted in a plastic cup was drenched at its foot with 5 ml of each of the diluted solutions, and kept in a greenhouse of 25° C. for 7 days. Twenty third-fourth instar larvae of Nilaparvata lugens were released, and further kept in the greenhouse for 6 days, then the number of insect of living Nilaparvata lugens parasitized on the rice was examined, and a control value was calculated according to the following equation: Control value (%)={1−(Cb×Tai)/(Cai×Tb))×100 wherein symbols represent as follows: Cb: the number of insects in a non-treated section before treatment, Cai: the number of insects in a non-treated section in observation, Tb: the number of insects in a treated-section before treatment, Tai: the number of insects in a treated-section in observation; wherein the non-treated section represents a section where the test diluted solution prepared by diluting the formulation without the present compound in Formulation Example 5 with the same amount of water as in the treated-section was used.

For `CCSc1c(Cl)cccc1-c1nc2cc(C(F)(F)F)cnc2n1C` [Present Compound 88, 2-(3-chloro-2-ethylsulfanylphenyl)-3-methyl-6-trifluoromethyl-3H-imidazo[4,5-b]pyridine], the pest or weed control at 500 ppm in test [1] and in test [2] was at least 90% in each case.
Turning to `CCSc1ccccc1-c1nc2cc(SC(F)(F)F)cnc2n1C` [Present Compound 161, 2-(2-ethylsulfanyl-phenyl)-3-methyl-6-trifluoromethylsulfanyl-3H-imidazo[4,5-b]pyridine], the pest or weed control at 500 ppm in test [3], in test [4], in test [2] and in test [5] was at least 90% throughout.
`CC[S+]([O-])c1ccccc1-c1nc2cc(C(F)(F)F)cnc2n1C1CC1` (centres unmarked) [Present Compound 31, 3-cyclopropyl-2-(2-ethylsulfinylphenyl)-6-trifluoromethyl-3H-imidazo[4,5-b]pyridine]: the pest or weed control at 500 ppm in test [5] was at least 90%.
`CCS(=O)(=O)c1c(Cl)cccc1-c1nc2cc(C(F)(F)F)cnc2n1C` [Present Compound 90, 2-(3-chloro-2-ethylsulfonylphenyl)-3-methyl-6-trifluoromethyl-3H-imidazo[4,5-b]pyridine]: the pest or weed control at 500 ppm in test [6] and in test [7] was at least 90% each time.
Regarding `C=CCS(=O)(=O)c1ccccc1-c1nc2cc(C(F)(F)F)cnc2n1C` [Present Compound 11, 2-(2-allylsulfonylphenyl)-3-methyl-6-trifluoromethyl-3H-imidazo[4,5-b]pyridine], in test [5], the pest or weed control at 500 ppm was at least 90%.
On the same count and under the same terms, the figure for `CCS(=O)(=O)c1ccccc1-c1nc2cc(C(F)(F)F)cnc2n1C(C)C` [Present Compound 29, 2-(2-ethylsulfonylphenyl)-3-isopropyl-6-trifluoromethyl-3H-imidazo[4,5-b]pyridine] is at least 90%.
Take `CC[S+]([O-])c1ccccc1-c1nc2cc(C(F)(F)F)cc(Br)c2n1C` (centres unmarked) [Present Compound 75, 7-bromo-2-(2-ethylsulfinylphenyl)-1-methyl-5-trifluoromethyl-1H-benzimidazole]: the pest or weed control at 500 ppm in test [3] and in test [2] was at least 90% each time.
In the case of `Cn1c(-c2ccccc2S(=O)(=O)CC(F)(F)F)nc2cc(C(F)(F)F)cnc21` [compound 188], the pest or weed control at 500 ppm in test [3], in test [4] and in test [2] was at least 90% in each case.
`CCn1c(-c2ccccc2S(=O)(=O)CC)nc2cc(C(F)(F)F)cnc21` [Present Compound 23, 2-(2-ethylsulfonylphenyl)-3-ethyl-6-trifluoromethyl-3H-imidazo[4,5-b]pyridine]: in test [5], the pest or weed control at 500 ppm is at least 90%.
Take `CCS(=O)(=O)c1cc(C(F)(F)F)ccc1-c1nc2cc(S(=O)(=O)C(F)(F)F)cnc2n1C` [compound 302, 2-(2-ethylsulfonyl-4-trifluoromethylphenyl)-3-methyl-6-trifluoromethylsulfonyl-3H-imidazo[4,5-b]pyridine]: in test [6], the pest or weed control at 500 ppm was at least 90%.
`CCSc1ccccc1-c1nc2cc(C(F)(F)F)cnc2n1CC` [Present Compound 21, 3-ethyl-2-(2-ethylsulfanylphenyl)-6-trifluoromethyl-3H-imidazo[4,5-b]pyridine]: the pest or weed control at 500 ppm in test [4] and in test [2] was at least 90% in each case.
In turn, `CC[S+]([O-])c1ccccc1-c1nc2cc(C#N)cnc2n1C` (centres unmarked) [Present Compound 49, 6-cyano-2-(2-ethylsulfinylphenyl)-3-methyl-3H-imidazo[4,5-b]pyridine] registered a pest or weed control at 500 ppm in test [2] of at least 90%.
Turning to `CCS(=O)(=O)c1ccccc1-c1nc2cc(S(C)(=O)=O)cnc2n1C` [compound 254, 2-(2-ethylsulfonylphenyl)-6-methylsulfonyl3-methyl-3H-imidazo[4,5-b]pyridine], the pest or weed control at 500 ppm in test [1] and in test [6] was at least 90% throughout.
For the compound `CC(C)[S+]([O-])c1ccccc1-c1nc2cc(C(F)(F)F)cnc2n1C` (centres unmarked) [Present Compound 13, 2-(2-isopropylsulfinylphenyl)-3-methyl-6-trifluoromethyl-3H-imidazo[4,5-b]pyridine], the pest or weed control at 500 ppm in test [1] and in test [5] was at least 90% each time.
`CC[S+]([O-])c1ccccc1-c1nc2cc(C(F)(F)F)cnc2n1C(C)C` (centres unmarked) [Present Compound 28, 2-(2-ethylsulfinylphenyl)-3-isopropyl-6-trifluoromethyl-3H-imidazo[4,5-b]pyridine]: in test [5], the pest or weed control at 500 ppm is at least 90%.
As to `CCS(=O)(=O)c1cc(C(F)(F)F)ccc1-c1nc2cc(C(F)(F)F)cnc2s1` [compound 251, 2-[2-ethylsulfonyl-4-(trifluoromethyl)phenyl]-6-(trifluoromethyl)thiazolo[5,4-b]pyridine], the pest or weed control at 500 ppm in test [4], in test [7] and in test [5] was at least 90% in each case.
Turning to `CCn1c(-c2ccccc2[S+]([O-])CC)nc2cc(C(F)(F)F)cnc21` (centres unmarked) [Present Compound 22, 2-(2-ethylsulfinylphenyl)-3-ethyl-6-trifluoromethyl-3H-imidazo[4,5-b]pyridine], the pest or weed control at 500 ppm in test [2] and in test [5] was at least 90% each time.
For `CC(C)S(=O)(=O)c1ccccc1-c1nc2cc(C(F)(F)F)cnc2n1C` [Present Compound 14, 2-(2-isopropylsulfonylphenyl)-3-methyl-6-trifluoromethyl-3H-imidazo[4,5-b]pyridine], the pest or weed control at 500 ppm in test [1], in test [4] and in test [5] was at least 90% throughout.
Consider `CCS(=O)(=O)c1cc(S(F)(F)(F)(F)F)ccc1-c1nc2cc(C(F)(F)F)cnc2n1C` [compound 343, 2-(2-ethylsulfonyl-4-(pentafluorosulphur)phenyl)-3-methyl-6-trifluoromethyl-3H-imidazo[4,5-b]pyridine], for which the pest or weed control at 500 ppm in test [3], in test [4], in test [7] and in test [2] was at least 90% throughout.

These data come from patent publication US8853238B2, “Fused heterocyclic compound and use thereof for pest control” (Sumitomo Chemical Company, Limited, priority 2010, dated 2014).
